Source: patent EP4650351A1, “INHIBITOR OF COMPLEMENT FACTOR B” (Nanjing Chia Tai Tianqing Pharmaceutical Co., Ltd., priority 2023, dated 2024)

Experiments:
[1] = biological target: T1, human complement factor B (Homo sapiens, UniProt P00751); test: TR-FRET competitive binding assay of human complement factor B (Cy5-labeled probe); settings: inhibitory activity against complement factor B; biotin-labeled factor B 25 nM, Cy5 probe 75 nM, 4 °C
T1 construct: purchased ComplementTech A135

[2] = Pharmacokinetic study in mice; type: in vivo; settings: mouse, 10 mg/kg, PO (10 mpk), male ICR (CD-1) mice, plasma
Description: Experimental Example 3: Pharmacokinetic study in mice
Purpose of the experiment: To investigate the plasma pharmacokinetics in male ICR (CD-1) mice after single intravenous administration and gavage administration of the compounds of the present disclosure.
Experimental animals: Male ICR (CD-1) mice, body weight 32-35 g; supplier: Vital River Laboratory Animal Technology Co., Ltd.
Experimental procedures: Intravenous Administration (IV); Oral Gavage (PO); the dose was 10 mg/kg (vehicle: water (containing 0.5% methylcellulose (w/v) and 0.5% Tween 80 (v/v)).
Sample collection: At each set time point, 40 µL of blood was collected from the orbital sinus of the experimental animals. Whole blood samples were placed in anticoagulant tubes containing EDTA-K2. The whole blood samples were centrifuged at 1500 g for 10 min to separate plasma. The upper-layer plasma samples were collected into sample tubes for LC-MS/MS analysis.
Data analysis: Plasma concentrations were processed using the non-compartmental model in WinNonlin™Version6.3 (Pharsight, Mountain View, CA) pharmacokinetic software. Pharmacokinetic parameters Cl, T1/2, Cmax, and AUC0-24 were calculated using the linear-log trapezoidal method, and the results were shown in the table below. Table 3. Results of the pharmacokinetic study

[3] = system: alternative complement pathway in human serum; test: Complement deposition assay of serum alternative pathway (Wieslab Complement system Alternative pathway kit); type: biochemical; settings: human serum diluted 18-fold, 37 °C 60 minutes, absorbance 405 nm
Description: The Wieslab® Complement system Alternative pathway kit (WIESLAB® Complement system Alternative pathway AP330 RUO) was used to detect the inhibitory activity of the compounds on the alternative complement pathway in human serum. Human serum was diluted 18-fold with the kit diluent. The diluted serum was added to a 96-well plate at 130 µL/well. Using a compound titrator (Tecan, D300e), test compounds at corresponding concentrations were added. The test concentration of the compounds started at 10 µM, with 3-fold serial dilution for 6 concentration points, detected in single wells. The DMSO ratio was uniformly adjusted to 0.1% using DMSO in all drug-treated wells. In the positive control wells, 0.1% DMSO and 130 µL of diluted serum were added; in the negative control wells, 0.1% DMSO and 130 µL of the kit diluent were added. The mixtures were pre-incubated at room temperature for 15 min. The incubated mixtures were transferred to the 96-well plate provided by the kit at 100 µL per well, incubated at 37 °C for 60 minutes, and the liquid in the wells was discarded. 300 µL of the washing solution in the kit was added to each well. The wells were washed three times. 100 µL of the conjugated antibody Conjugate in the kit was added to each well, and it was incubated at room temperature for 30 minutes. The liquid in the wells was removed. 300 µL of the washing solution in the kit was added to each well and the wells were washed three times. 100 µL of the substrate solution was added to each well and incubated at room temperature for 30 minutes. […] Table 2. Results of complement deposition in serum alternative pathway

[4] = system: collagen antibody and lipopolysaccharide-induced arthritis (CAIA); test: Pharmacodynamic study in the mouse CAIA model (Experimental Example 5); type: in vivo, BALB/c mice; settings: Mean; 20mg/kg bid oral, Day0-Day14; larger AUC = greater severity
Description: Experimental Animals: BALB/c mice, male, 6-8 weeks, 18-20 g; Supplier: Shanghai Jihui Laboratory Animal Care Co., Ltd 1. Induction of the mouse CAIA model: On Day 0, all mice were intravenously injected via the tail vein with 0.15 mL of Arthrogen-CIA 5-clone mixed type II collagen antibody (10 mg/mL, Chondrex). […] 2. Administration: Table 7. Administration groups and administration schemes [table] The experimental data are expressed as mean±standard error (mean ± S.E.M.). The data were analyzed by One-way ANOVA/Dunnett's using Graphpad Prism and by Repeat Measurement ANOVA/Bonferroni using SPSS. P< 0.05 was considered to indicate a significant difference. Arthritis scoring: Starting from the day of modeling, the incidence of arthritis in the limbs of the animals in each group was observed three times a week until the end of the experiment. According to the different degrees of lesions (erythema and swelling), the scoring was carried out according to the standard of 0-4 points. […] The larger the AUC, the greater the severity of arthritis was. […] Arthritis score AUC

[5] = system: collagen antibody and lipopolysaccharide-induced arthritis (CAIA); test: Collagen antibody-induced mouse arthritis model (Experimental Example 4); type: in vivo, BALB/c mice; settings: Mean, 20 mg/kg oral twice a day
Description: Experimental animals: BALB/c mice, male, 6-8 weeks, 18-20 g; supplier: Beijing Vital River Laboratory Animal Technology Co., Ltd. 1. […] 2. Administration: Table 4. Administration groups and administration schemes [table] The data were analyzed by One-way ANOVA/Dunnett's using Graphpad Prism and by Repeat Measurement ANOVA/Bonferroni using SPSS. P< 0.05 was considered to indicate a significant difference. Arthritis scoring: Starting from the day of modeling, the incidence of arthritis in the limbs of the animals in each group was observed three times a week until the end of the experiment. According to the different degrees of lesions (erythema and swelling), the scoring was carried out according to the standard of 0-4 points. […] Joint swelling: Starting from the day of modeling, the thickness of the left and right foot pads of the animals was measured three times a week using a micrometer (Mitutoyo, 0-25 mm, minimal 0.001 mm) until the end of the experiment.

T1 sequence (P00751 26-764): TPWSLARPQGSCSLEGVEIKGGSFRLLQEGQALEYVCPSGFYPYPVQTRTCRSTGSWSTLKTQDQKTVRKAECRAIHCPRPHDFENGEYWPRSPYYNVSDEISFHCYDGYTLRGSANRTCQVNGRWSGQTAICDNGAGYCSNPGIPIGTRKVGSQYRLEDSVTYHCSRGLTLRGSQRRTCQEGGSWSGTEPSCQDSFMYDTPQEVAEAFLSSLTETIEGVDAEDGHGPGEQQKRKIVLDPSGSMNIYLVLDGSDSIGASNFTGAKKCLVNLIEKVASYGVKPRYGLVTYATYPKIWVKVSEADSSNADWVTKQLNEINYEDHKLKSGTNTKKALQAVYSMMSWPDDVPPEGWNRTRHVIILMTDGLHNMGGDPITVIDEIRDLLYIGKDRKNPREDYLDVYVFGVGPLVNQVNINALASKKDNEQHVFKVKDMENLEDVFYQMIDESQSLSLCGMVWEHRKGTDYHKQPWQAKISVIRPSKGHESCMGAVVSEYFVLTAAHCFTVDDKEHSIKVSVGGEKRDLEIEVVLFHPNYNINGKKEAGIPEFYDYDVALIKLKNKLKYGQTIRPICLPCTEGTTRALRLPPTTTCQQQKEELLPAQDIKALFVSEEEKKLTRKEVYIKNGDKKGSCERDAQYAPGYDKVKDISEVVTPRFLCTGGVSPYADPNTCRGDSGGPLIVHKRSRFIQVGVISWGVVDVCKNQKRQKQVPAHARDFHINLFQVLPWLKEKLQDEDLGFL

Work on `COc1cc(C)c2[nH]ccc2c1O[C@@H]1CCN(CC(F)(F)F)C[C@H]1c1ccc(C(=O)O)cc1` [Example 14a-2, 4-((3R,4R)-4-((5-methoxy-7-methyl-1H-indol-4-yl)oxy)-1-(2,2,2-trifluoroethyl)piperidin-3-yl)benzoic acid] yielded an IC50 [1] of 10.2 nM, a Cmax [2] of 1370 ng/mL and an AUC(0-t) ([2]; read-out: AUC0-24) of 6690 ng·h/mL. The IC50 [3] was 59.3 nM and the “Arthritis score AUC” value [4] was 3.00.

With `COc1cc(C)c2[nH]ccc2c1SC1CCN(CC(F)F)CC1c1ccc(C(=O)O)cc1` (single isomer, unassigned) [Example 16-2] the IC50 [1] was 12.4 nM, the Cmax ([2]; in vivo) was 601 ng/mL and the AUC(0-t) at 24 h ([2]; in vivo, read-out: AUC0-24) was 5750 ng·h/mL. For the same molecule, the IC50 [3] was […] and the “Arthritis score AUC” value [4] was 7.25.

`COc1cc(C)c2[nH]ccc2c1O[C@@H]1CCN(CC(F)F)C[C@H]1c1ccc(C(=O)O)cc1` [Example 13a-2, 4-((3R,4R)-1-(2,2-difluoroethyl)-4-((5-methoxy-7-methyl-1H-indol-4-yl)oxy)piperidin-3-yl)benzoic acid] gave an IC50 [1] of 6 nM, a Cmax [2] of 1290 ng/mL and an AUC(0-t) ([2]; read-out: AUC0-24) of 9680 ng·h/mL. For the same molecule, the Arthritis score ([5]; Day0) was 0.00, the “Thickness of foot pads (mm)” value ([5]; Day0) was 1.60 mm and the Arthritis score ([5]; Day3) was 0.00. For the same molecule, the “Thickness of foot pads (mm)” value ([5]; Day3) was 1.607 mm, the Arthritis score ([5]; Day5) was 1.17 and the “Thickness of foot pads (mm)” value ([5]; Day5) was 1.632 mm. The Arthritis score ([5]; Day7) was 1.83, the “Thickness of foot pads (mm)” value ([5]; Day7) was 1.665 mm and the Arthritis score ([5]; Day10) was 1.50. For the same molecule, the “Thickness of foot pads (mm)” value ([5]; Day10) was 1.666 mm, the Arthritis score ([5]; Day12) was 1.33 and the “Thickness of foot pads (mm)” value ([5]; Day12) was 1.661 mm. For the same molecule, the Arthritis score ([5]; Day14) was 1.50, the “Thickness of foot pads (mm)” value ([5]; Day14) was 1.669 mm and the IC50 [3] was 54.1 nM.
